Laboratory results as given in US9006450B2 (Boehringer Ingelheim International GmbH, priority 2010, dated 2015).

Target: T1, human ACC2 (Homo sapiens, UniProt O00763)
T1 construct: made in house; host or cells: insect cells (baculoviral expression system)
Test: ACC2 assay, spectrophotometric 384 well assay (NADH-linked, coupled lactate dehydrogenase/pyruvate kinase)
Assay type: biochemical
Conditions: ACC2 assay, hACC2 construct lacking 128 N-terminal amino acids, 25° C., 340 nm; read-out: IC50
Summary of the method: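 Human ACC2 lacking N-terminal 128 aa, baculovirus/insect-cell expressed, anion-exchange purified; 100 mM Tris pH 7.5, 10 mM citrate, 25 mM KHCO3, 1% DMSO. Started with 200 μM NADH and acetyl-CoA plus 500 μM ATP; PK/LDH-coupled A340 decrease read 15 min at 25° C. IC50 by nonlinear fit of low-control-subtracted slopes.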

T1 sequence (O00763 129-2458 limits assumed): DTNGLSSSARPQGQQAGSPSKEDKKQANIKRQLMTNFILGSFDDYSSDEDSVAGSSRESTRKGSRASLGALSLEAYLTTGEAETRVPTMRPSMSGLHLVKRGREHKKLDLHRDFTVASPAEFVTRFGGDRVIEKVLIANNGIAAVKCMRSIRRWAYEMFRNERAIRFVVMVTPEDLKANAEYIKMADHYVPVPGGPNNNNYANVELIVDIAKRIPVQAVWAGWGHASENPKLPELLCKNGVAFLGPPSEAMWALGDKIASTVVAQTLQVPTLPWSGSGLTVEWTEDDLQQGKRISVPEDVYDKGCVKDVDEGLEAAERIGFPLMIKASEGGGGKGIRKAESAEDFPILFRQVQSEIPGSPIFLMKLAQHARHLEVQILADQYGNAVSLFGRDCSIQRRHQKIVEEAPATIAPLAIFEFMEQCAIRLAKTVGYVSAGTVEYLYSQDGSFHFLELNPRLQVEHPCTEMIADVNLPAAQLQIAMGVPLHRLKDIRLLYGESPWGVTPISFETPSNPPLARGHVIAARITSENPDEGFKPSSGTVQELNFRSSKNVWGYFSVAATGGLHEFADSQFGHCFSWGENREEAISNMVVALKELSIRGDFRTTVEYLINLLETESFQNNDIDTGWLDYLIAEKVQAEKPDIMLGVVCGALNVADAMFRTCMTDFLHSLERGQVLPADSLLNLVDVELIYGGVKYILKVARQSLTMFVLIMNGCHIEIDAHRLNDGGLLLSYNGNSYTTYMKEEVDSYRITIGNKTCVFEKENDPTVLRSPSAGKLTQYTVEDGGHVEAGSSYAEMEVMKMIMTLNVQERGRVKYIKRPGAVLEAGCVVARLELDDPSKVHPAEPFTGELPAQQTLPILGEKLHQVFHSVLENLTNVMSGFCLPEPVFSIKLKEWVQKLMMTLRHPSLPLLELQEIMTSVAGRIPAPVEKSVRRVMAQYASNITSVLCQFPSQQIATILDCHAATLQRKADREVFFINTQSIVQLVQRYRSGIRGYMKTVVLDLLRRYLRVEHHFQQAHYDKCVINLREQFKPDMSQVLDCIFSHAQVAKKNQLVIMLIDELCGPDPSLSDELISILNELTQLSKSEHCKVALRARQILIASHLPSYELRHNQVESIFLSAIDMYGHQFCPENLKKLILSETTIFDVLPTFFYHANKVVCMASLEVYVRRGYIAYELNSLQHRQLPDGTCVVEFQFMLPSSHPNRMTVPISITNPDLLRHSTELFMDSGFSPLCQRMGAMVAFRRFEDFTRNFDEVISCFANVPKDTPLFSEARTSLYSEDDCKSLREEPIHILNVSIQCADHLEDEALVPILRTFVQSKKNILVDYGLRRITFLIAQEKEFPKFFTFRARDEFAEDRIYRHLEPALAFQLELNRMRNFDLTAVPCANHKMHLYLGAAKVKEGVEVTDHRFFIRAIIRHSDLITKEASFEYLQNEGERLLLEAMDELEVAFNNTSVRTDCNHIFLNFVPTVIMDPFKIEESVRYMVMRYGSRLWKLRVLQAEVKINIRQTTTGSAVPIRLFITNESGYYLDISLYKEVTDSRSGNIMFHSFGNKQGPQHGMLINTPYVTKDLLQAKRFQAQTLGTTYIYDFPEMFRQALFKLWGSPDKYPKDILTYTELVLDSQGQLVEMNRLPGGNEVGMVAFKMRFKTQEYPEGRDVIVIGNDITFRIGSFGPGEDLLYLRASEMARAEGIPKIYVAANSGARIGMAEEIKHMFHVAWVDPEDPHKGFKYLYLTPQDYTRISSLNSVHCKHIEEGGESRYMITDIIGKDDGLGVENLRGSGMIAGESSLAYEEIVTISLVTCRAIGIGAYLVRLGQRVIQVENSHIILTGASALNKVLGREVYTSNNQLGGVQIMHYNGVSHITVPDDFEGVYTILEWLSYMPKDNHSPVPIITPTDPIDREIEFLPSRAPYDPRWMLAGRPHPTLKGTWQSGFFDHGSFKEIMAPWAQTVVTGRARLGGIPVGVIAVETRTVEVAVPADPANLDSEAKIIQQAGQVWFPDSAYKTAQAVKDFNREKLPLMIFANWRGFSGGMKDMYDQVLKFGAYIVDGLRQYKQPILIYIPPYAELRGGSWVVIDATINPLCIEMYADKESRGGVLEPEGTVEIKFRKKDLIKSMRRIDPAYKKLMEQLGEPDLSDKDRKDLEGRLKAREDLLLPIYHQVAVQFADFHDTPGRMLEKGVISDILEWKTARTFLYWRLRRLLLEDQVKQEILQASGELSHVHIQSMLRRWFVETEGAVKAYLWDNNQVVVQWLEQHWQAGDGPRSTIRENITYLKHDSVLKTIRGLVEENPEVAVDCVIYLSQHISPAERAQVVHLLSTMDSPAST

IC50 [µM]	Compound
0.41	CC(=O)N[C@@H](C)c1ccc(C2CCN(c3ccc(OCC4CC4)c(C)c3)CC2)cc1 [Example 9.38]
2.9	CC(=O)N[C@@H](C)c1ccc(C2CCN(c3ccc(OCC4CC4)c(C#N)c3)CC2)cc1 [Example 9.40]
0.22	CC(=O)N[C@@H](C)c1ccc(C2CCN(c3ccc(OCC4CC4)c(F)c3)CC2)cc1 [Example 9.41]
0.16	CC(=O)N[C@@H](C)c1ccc(C2CCN(c3ccc(OCC4CCC4)c(F)c3)CC2)cc1 [Example 9.42]
0.43	COc1cc(N2CCC(c3ccc([C@H](C)NC(C)=O)cc3)CC2)ccc1OCC1CCC1 [Example 9.43]
0.48	COc1cc(N2CCC(c3ccc([C@H](C)NC(C)=O)cc3)CC2)ccc1OCC1CC1 [Example 9.44]
0.38	CC(=O)N[C@@H](C)c1ccc(C2CCN(c3ccc(OCC4CCC4)c(Cl)c3)CC2)cc1 [Example 9.45]
0.56	CC(=O)N[C@@H](C)c1ccc(C2CCN(c3ccc(OCC4CC4)c(Cl)c3)CC2)cc1 [Example 9.46]
0.05	CC(=O)N[C@@H](C)c1ccc(C2CCN(c3ncc(-c4ccc(C#N)c(F)c4)cn3)CC2)cc1 [Example 10.1, (S)—N-[1-(4-{1-[5-(4-Cyano-3-fluorophenyl)-pyrimidin-2-yl]-piperidin-4-yl}-phenyl)ethyl]-acetamide]
0.2	COc1ccc(-c2cnc(N3CCC(c4ccc([C@H](C)NC(C)=O)cc4)CC3)nc2)cn1 [Example 10.2]
0.13	COc1cccc(-c2cnc(N3CCC(c4ccc([C@H](C)NC(C)=O)cc4)CC3)nc2)c1 [Example 10.3]
2	COc1ccccc1-c1cnc(N2CCC(c3ccc([C@H](C)NC(C)=O)cc3)CC2)nc1 [Example 10.4]
0.54	CCOc1ccc(-c2cnc(N3CCC(c4ccc([C@H](C)NC(C)=O)cc4)CC3)nc2)cc1 [Example 10.5]
0.1	CCc1ccc(-c2cnc(N3CCC(c4ccc([C@H](C)NC(C)=O)cc4)CC3)nc2)cc1 [Example 10.6]
0.04	CC(=O)N[C@@H](C)c1ccc(C2CCN(c3ncc(-c4cccc(C)c4)cn3)CC2)cc1 [Example 10.7]
0.2	CC(=O)N[C@@H](C)c1ccc(C2CCN(c3ncc(-c4ccccc4C)cn3)CC2)cc1 [Example 10.8]
0.02	CC(=O)N[C@@H](C)c1ccc(C2CCN(c3ncc(-c4ccc(F)cc4)cn3)CC2)cc1 [Example 10.9]
0.07	CC(=O)N[C@@H](C)c1ccc(C2CCN(c3ncc(-c4ccc(C#N)cc4)cn3)CC2)cc1 [Example 10.10]
5.8	CC(=O)N[C@@H](C)c1ccc(C2CCN(c3ncc(-c4ccc(C(C)C)cc4)cn3)CC2)cc1 [Example 10.11]
0.36	CC(=O)N[C@@H](C)c1ccc(C2CCN(c3ncc(-c4cccnc4)cn3)CC2)cc1 [Example 10.12]
0.09	CC(=O)N[C@@H](C)c1ccc(C2CCN(c3ncc(-c4ccccc4F)cn3)CC2)cc1 [Example 10.13]
0.1	CC(=O)N[C@@H](C)c1ccc(C2CCN(c3ncc(-c4cc5ccccc5o4)cn3)CC2)cc1 [Example 10.14]
0.55	CC(=O)N[C@@H](C)c1ccc(C2CCN(c3ncc(-c4ccc(OC(F)(F)F)cc4)cn3)CC2)cc1 [Example 10.15]
0.71	CC(=O)N[C@@H](C)c1ccc(C2CCN(c3ncc(-c4ccncc4)cn3)CC2)cc1 [Example 10.16]

IC50 [µM]	Compound
0.18	CC(=O)N[C@@H](C)c1ccc(C2CCN(c3ncc(-c4ccc(CC#N)cc4)cn3)CC2)cc1 [Example 10.18]
2.7	CC(=O)N[C@@H](C)c1ccc(C2CCN(c3ncc(-c4c(C)noc4C)cn3)CC2)cc1 [Example 10.20]
0.07	CC(=O)N[C@@H](C)c1ccc(C2CCN(c3ncc(-c4cnc5ccccc5c4)cn3)CC2)cc1 [Example 10.21]
1.1	COc1ncc(-c2cnc(N3CCC(c4ccc([C@H](C)NC(C)=O)cc4)CC3)nc2)cn1 [Example 10.22]
0.29	CC(=O)N[C@@H](C)c1ccc(C2CCN(c3ncc(-c4ccc5c(c4)OCCO5)cn3)CC2)cc1 [Example 10.23]
0.07	CC(=O)N[C@@H](C)c1ccc(C2CCN(c3ncc(-c4ccc5c(c4)CCO5)cn3)CC2)cc1 [Example 10.24]
0.32	CC(=O)N[C@@H](C)c1ccc(C2CCN(c3ncc(-c4ccc5c(ccn5C)c4)cn3)CC2)cc1 [Example 10.25]
0.41	CC(=O)N[C@@H](C)c1ccc(C2CCN(c3ncc(-c4ccc5c(c4)OCCCO5)cn3)CC2)cc1 [Example 10.26]
0.97	CC(=O)N[C@@H](C)c1ccc(C2CCN(c3ncc(-c4ccc(OC(C)C)cc4)cn3)CC2)cc1 [Example 10.27]
0.13	COc1cc(-c2cnc(N3CCC(c4ccc([C@H](C)NC(C)=O)cc4)CC3)nc2)ccn1 [Example 10.29]
0.13	COc1ccc(-c2cnc(N3CCC(c4ccc([C@H](C)NC(C)=O)cc4)CC3)nc2)cc1C [Example 10.30]
0.18	CSc1ccc(-c2cnc(N3CCC(c4ccc([C@H](C)NC(C)=O)cc4)CC3)nc2)cc1 [Example 10.31]
0.41	COCc1ccc(-c2cnc(N3CCC(c4ccc([C@H](C)NC(C)=O)cc4)CC3)nc2)cc1 [Example 10.32]
0.64	CC(=O)N[C@@H](C)c1ccc(C2CCN(c3ncc(-c4ccc(C)nc4)cn3)CC2)cc1 [Example 10.33]
0.21	COc1cc(OC)cc(-c2cnc(N3CCC(c4ccc([C@H](C)NC(C)=O)cc4)CC3)nc2)c1 [Example 10.34]
1.1	COc1ccc(-c2cnc(N3CCC(c4ccc([C@H](C)NC(C)=O)cc4)CC3)nc2)cc1OC [Example 10.35]
0.21	COc1ccc(-c2cnc(N3CCC(c4ccc([C@H](C)NC(C)=O)cc4)CC3)nc2)c(C(F)(F)F)c1 [Example 10.36]
0.19	COc1ccc(-c2cnc(N3CCC(c4ccc([C@H](C)NC(C)=O)cc4)CC3)nc2)c(F)c1 [Example 10.37]
3	CCOc1ccc(-c2cnc(N3CCC(c4ccc([C@H](C)NC(C)=O)cc4)CC3)nc2)cn1 [Example 10.38]
6.9	COc1ccc2cc(-c3cnc(N4CCC(c5ccc([C@H](C)NC(C)=O)cc5)CC4)nc3)ccc2c1 [Example 10.40]
1.9	CC(=O)N[C@@H](C)c1ccc(C2CCN(c3ncc(-c4ccc(C5CC5)cc4)cn3)CC2)cc1 [Example 10.41]
0.03	CC(=O)N[C@@H](C)c1ccc(C2CCN(c3ncc(-c4ccccc4)cn3)CC2)cc1 [Example 10.43]
0.1	CC(=O)N[C@@H](C)c1ccc(C2CCN(c3ncc(-c4ccc(C)cc4)cn3)CC2)cc1 [Example 10.44]
1.1	CC(=O)N[C@@H](C)c1ccc(C2CCN(c3ncc(-c4ccc(C(F)(F)F)cc4)cn3)CC2)cc1 [Example 10.45]

IC50 [µM]	Compound
0.14	CC(=O)N[C@@H](C)c1ccc(C2CCN(c3ncc(-c4ccc5[nH]ccc5c4)cn3)CC2)cc1 [Example 10.46]
0.27	CC(=O)N[C@@H](C)c1ccc(C2CCN(c3ncc(-c4ccc(C)c(C)c4)cn3)CC2)cc1 [Example 10.47]
1.2	CC(=O)N[C@@H](C)c1ccc(C2CCN(c3ncc(-c4ccc(C)cc4C)cn3)CC2)cc1 [Example 10.48]
0.26	CC(=O)N[C@@H](C)c1ccc(C2CCN(c3ncc(-c4ccc(F)c(C)c4)cn3)CC2)cc1 [Example 10.49]
0.05	CC(=O)N[C@@H](C)c1ccc(C2CCN(c3ncc(-c4ccc(F)c(C#N)c4)cn3)CC2)cc1 [Example 10.50]
1.5	CC(=O)N[C@@H](C)c1ccc(C2CCN(c3ncc(-c4ccc(OCC5CC5)nc4)cn3)CC2)cc1 [Example 10.51]
0.07	CC(=O)N[C@@H](C)c1ccc(C2CCN(c3ncc(-c4ccc(F)c(F)c4)cn3)CC2)cc1 [Example 10.52]
0.08	CC(=O)N[C@@H](C)c1ccc(C2CCN(c3ncc(-c4ccc(F)cc4F)cn3)CC2)cc1 [Example 10.53]
0.42	CC(=O)N[C@@H](C)c1ccc(C2CCN(c3ncc(-c4cc(C)ccc4C)cn3)CC2)cc1 [Example 10.54]
0.64	CC(=O)N[C@@H](C)c1ccc(C2CCN(c3ncc(-c4ccccc4C#N)cn3)CC2)cc1 [Example 10.55]
0.32	CC(=O)N[C@@H](C)c1ccc(C2CCN(c3ncc(-c4cscc4C)cn3)CC2)cc1 [Example 10.56]
0.24	COc1ccc(-c2cnc(N3CCC(c4ccc([C@H](C)NC(C)=O)cc4)CC3)nc2)cc1Cl [Example 10.57]
0.76	COc1ncccc1-c1cnc(N2CCC(c3ccc([C@H](C)NC(C)=O)cc3)CC2)nc1 [Example 10.58]
0.39	CC(=O)N[C@@H](C)c1ccc(C2CCN(c3ncc(-c4ccc(F)cc4C)cn3)CC2)cc1 [Example 10.60]
0.53	CC(=O)N[C@@H](C)c1ccc(C2CCN(c3ncc(-c4ccc(C#N)cc4C)cn3)CC2)cc1 [Example 10.61]
0.05	CC(=O)N[C@@H](C)c1ccc(C2CCN(c3ncc(-c4ccsc4)cn3)CC2)cc1 [Example 10.62]
0.03	CC(=O)N[C@@H](C)c1ccc(C2CCN(c3ncc(-c4ccc(C#N)s4)cn3)CC2)cc1 [Example 10.63]
7	CCSc1ccc(-c2cnc(N3CCC(c4ccc([C@H](C)NC(C)=O)cc4)CC3)nc2)cc1 [Example 10.64]
0.33	COc1cc(-c2cnc(N3CCC(c4ccc([C@H](C)NC(C)=O)cc4)CC3)nc2)ccc1C [Example 10.65]
0.16	CC(=O)N[C@@H](C)c1ccc(C2CCN(c3ncc(-c4ccc(C)cc4Cl)cn3)CC2)cc1 [Example 10.66]
0.09	CC(=O)N[C@@H](C)c1ccc(C2CCN(c3ncc(-c4ccc(C)c(Cl)c4)cn3)CC2)cc1 [Example 10.67]
0.32	COc1cncc(-c2cnc(N3CCC(c4ccc([C@H](C)NC(C)=O)cc4)CC3)nc2)c1 [Example 10.68]
0.27	CC(=O)N[C@@H](C)c1ccc(C2CCN(c3ncc(-c4cncc(F)c4)cn3)CC2)cc1 [Example 10.69]
